In ChEMBL document CHEMBL3885881, “DrugMatrix”:

Organism: Rattus norvegicus
Assay: DrugMatrix - Regimen: Daily Repeat
Format: toxicity, organism-based, Sprague-Dawley
Set-up: regimen Daily Repeat, gender Male, age 6-8 weeks
Conditions: in vivo, po, route oral GAVAGE, vehicle .5 % CMC; for ABSOLUTE BASOPHIL / ABSOLUTE EOSINOPHIL / ABSOLUTE LYMPHOCYTE / ABSOLUTE MONOCYTE / ABSOLUTE SEGMENTED NEUTROPHIL / BASOPHIL / EOSINOPHIL / ERYTHROCYTE COUNT / HEMATOCRIT / HEMOGLOBIN / LEUKOCYTE COUNT / LYMPHOCYTE / MEAN CORPUSCULAR HEMOGLOBIN / MEAN CORPUSCULAR HEMOGLOBIN CONCENTRATION / MEAN CORPUSCULAR VOLUME / MONOCYTE / NEUTROPHIL / NUCLEATED RED BLOOD CELLS / PLATELET COUNT: tissue Blood; for ALANINE AMINOTRANSFERASE / ALBUMIN / ALKALINE PHOSPHATASE / ASPARTATE AMINOTRANSFERASE / BLOOD UREA NITROGEN / CARBON DIOXIDE / CHLORIDE / CHOLESTEROL / CREATINE PHOSPHOKINASE / CREATININE / GLUCOSE / LACTATE DEHYDROGENASE / LIPASE / PHOSPHORUS / POTASSIUM / SODIUM / TOTAL BILIRUBIN / TOTAL PROTEIN / URIC ACID: tissue Plasma
[1] = 50 mg/kg, 120 h, dose level Low, time 5 day
[2] = 2500 mg/kg, 72 h, dose level High, time 3 day
[3] = 2500 mg/kg, 120 h, dose level High, time 5 day

With `CC(/C=C1\SC(=S)N(CC(=O)O)C1=O)=C\c1ccccc1` the “ABSOLUTE BASOPHIL” value [1] was 0 CELLS/uL, the “ABSOLUTE EOSINOPHIL” value [1] was 0 CELLS/uL and the “ABSOLUTE LYMPHOCYTE” value [1] was 8755.33 CELLS/uL. The “ABSOLUTE MONOCYTE” value [1] was 98 CELLS/uL, the “ABSOLUTE SEGMENTED NEUTROPHIL” value [1] was 946.67 CELLS/uL and the BASOPHIL [1] was 0%. The EOSINOPHIL [1] was 0%, the “ERYTHROCYTE COUNT” value [1] was 5.47 x10E6/uL and the HEMATOCRIT [1] was 34.63%. The HEMOGLOBIN [1] was 14.03 G/DL, the “LEUKOCYTE COUNT” value [1] was 9.8 x10E3/uL and the LYMPHOCYTE [1] was 89.67%. For the same compound, the “MEAN CORPUSCULAR HEMOGLOBIN” value [1] was 25.7 pg, the “MEAN CORPUSCULAR HEMOGLOBIN CONCENTRATION” value [1] was 40.53 G/DL and the “MEAN CORPUSCULAR VOLUME” value [1] was 63.33 fL. For the same compound, the MONOCYTE [1] was 1%, the NEUTROPHIL [1] was 9.33% and the “NUCLEATED RED BLOOD CELLS” value [1] was 0 /100WBC. The “PLATELET COUNT” value [1] was 1226 x10E3/uL, the “ALANINE AMINOTRANSFERASE” value [1] was 61.33 u/L and the ALBUMIN [1] was 4.5 G/DL. For the same compound, the “ALKALINE PHOSPHATASE” value [1] was 418.33 u/L, the “ASPARTATE AMINOTRANSFERASE” value [1] was 81.33 u/L and the “BLOOD UREA NITROGEN” value [1] was 14.33 mg/dL. For the same compound, the “CARBON DIOXIDE” value [1] was 34 mmol/L, the CHLORIDE [1] was 100.67 MEQ/L and the CHOLESTEROL [1] was 81 mg/dL. For the same compound, the “CREATINE PHOSPHOKINASE” value [1] was 171 u/L, the CREATININE [1] was 0.12 mg/dL and the GLUCOSE [1] was 147.33 mg/dL. For the same compound, the “LACTATE DEHYDROGENASE” value [1] was 106.67 u/L, the LIPASE [1] was 10 u/L and the PHOSPHORUS [1] was 10.83 mg/dL. The POTASSIUM [1] was 6.07 MEQ/L, the SODIUM [1] was 143.73 MEQ/L and the “TOTAL BILIRUBIN” value [1] was 0.2 mg/dL. The “TOTAL PROTEIN” value [1] was 6.37 G/DL, the “URIC ACID” value [1] was 0.87 mg/dL and the “ABSOLUTE BASOPHIL” value [2] was 0 CELLS/uL. For the same compound, the “ABSOLUTE EOSINOPHIL” value [2] was 58.67 CELLS/uL, the “ABSOLUTE LYMPHOCYTE” value [2] was 8116.67 CELLS/uL and the “ABSOLUTE MONOCYTE” value [2] was 158 CELLS/uL. The “ABSOLUTE SEGMENTED NEUTROPHIL” value [2] was 700 CELLS/uL, the BASOPHIL [2] was 0% and the EOSINOPHIL [2] was 0.67%. The “ERYTHROCYTE COUNT” value [2] was 6.27 x10E6/uL, the HEMATOCRIT [2] was 39% and the HEMOGLOBIN [2] was 15.47 G/DL. For the same compound, the “LEUKOCYTE COUNT” value [2] was 9.03 x10E3/uL, the LYMPHOCYTE [2] was 90% and the “MEAN CORPUSCULAR HEMOGLOBIN” value [2] was 24.83 pg. The “MEAN CORPUSCULAR HEMOGLOBIN CONCENTRATION” value [2] was 39.77 G/DL, the “MEAN CORPUSCULAR VOLUME” value [2] was 62.43 fL and the MONOCYTE [2] was 1.67%. The NEUTROPHIL [2] was 7.67%, the “NUCLEATED RED BLOOD CELLS” value [2] was 0 /100WBC and the “PLATELET COUNT” value [2] was 1417 x10E3/uL. The “ALANINE AMINOTRANSFERASE” value [2] was 61.33 u/L, the ALBUMIN [2] was 3.93 G/DL and the “ALKALINE PHOSPHATASE” value [2] was 381 u/L. The “ASPARTATE AMINOTRANSFERASE” value [2] was 133.33 u/L, the “BLOOD UREA NITROGEN” value [2] was 25 mg/dL and the “CARBON DIOXIDE” value [2] was 19 mmol/L. The CHLORIDE [2] was 105.33 MEQ/L, the CHOLESTEROL [2] was 46 mg/dL and the “CREATINE PHOSPHOKINASE” value [2] was 544.33 u/L. The CREATININE [2] was 0.22 mg/dL, the GLUCOSE [2] was 130.33 mg/dL and the “LACTATE DEHYDROGENASE” value [2] was 248.67 u/L. It also gave an LIPASE [2] of 9.33 u/L, a PHOSPHORUS [2] of 11.67 mg/dL and a POTASSIUM [2] of 5.57 MEQ/L. The SODIUM [2] was 142.23 MEQ/L, the “TOTAL BILIRUBIN” value [2] was 0.27 mg/dL and the “TOTAL PROTEIN” value [2] was 5.4 G/DL. For the same compound, the “URIC ACID” value [2] was 1.83 mg/dL, the “ABSOLUTE BASOPHIL” value [3] was 0 CELLS/uL and the “ABSOLUTE EOSINOPHIL” value [3] was 0 CELLS/uL. The “ABSOLUTE LYMPHOCYTE” value [3] was 3825 CELLS/uL, the “ABSOLUTE MONOCYTE” value [3] was 102 CELLS/uL and the “ABSOLUTE SEGMENTED NEUTROPHIL” value [3] was 1173 CELLS/uL. The BASOPHIL [3] was 0%, the EOSINOPHIL [3] was 0% and the “ERYTHROCYTE COUNT” value [3] was 7.26 x10E6/uL. For the same compound, the HEMATOCRIT [3] was 41.8%, the HEMOGLOBIN [3] was 16.5 G/DL and the “LEUKOCYTE COUNT” value [3] was 5.1 x10E3/uL. For the same compound, the LYMPHOCYTE [3] was 75%, the “MEAN CORPUSCULAR HEMOGLOBIN” value [3] was 22.7 pg and the “MEAN CORPUSCULAR HEMOGLOBIN CONCENTRATION” value [3] was 39.5 G/DL. The “MEAN CORPUSCULAR VOLUME” value [3] was 57.6 fL, the MONOCYTE [3] was 2% and the NEUTROPHIL [3] was 23%. The “NUCLEATED RED BLOOD CELLS” value [3] was 0 /100WBC, the “PLATELET COUNT” value [3] was 1575 x10E3/uL and the “ALANINE AMINOTRANSFERASE” value [3] was 38 u/L. The ALBUMIN [3] was 3.9 G/DL, the “ALKALINE PHOSPHATASE” value [3] was 162 u/L and the “ASPARTATE AMINOTRANSFERASE” value [3] was 70 u/L. The “BLOOD UREA NITROGEN” value [3] was 24 mg/dL, the “CARBON DIOXIDE” value [3] was 25 mmol/L and the CHLORIDE [3] was 100 MEQ/L. For the same compound, the CHOLESTEROL [3] was 64 mg/dL, the “CREATINE PHOSPHOKINASE” value [3] was 119 u/L and the CREATININE [3] was 0.1 mg/dL. For the same compound, the GLUCOSE [3] was 89 mg/dL, the “LACTATE DEHYDROGENASE” value [3] was 148 u/L and the LIPASE [3] was 7 u/L. It also gave a PHOSPHORUS [3] of 15.2 mg/dL, a POTASSIUM [3] of 4.09 MEQ/L and an SODIUM [3] of 144.1 MEQ/L. For the same compound, the “TOTAL BILIRUBIN” value [3] was 0.5 mg/dL, the “TOTAL PROTEIN” value [3] was 5.9 G/DL and the “URIC ACID” value [3] was 2.1 mg/dL.
